Experiments:
[1] = molecular target: T1, human mGluR5a receptor (Homo sapiens, UniProt P41594); assay: Automated fluorescence assay (fluo-3) in transiently transfected HEK 293 cells; format: cell-based; parameters: expressed in transfected cells; host or cells: HEK 293 cells, transient CaPO4 transfection; conditions: cells transfected with mGluR5a2
Experimental: HEK 293 cells were transiently transfected with DNA encoding mGluR5a (constructs mGluR5a2 and mGluR5a3 and construct MMTV-hmGluR5a) receptors. Approximately 2×10^6 HEK cells were transiently transfected with 5-18 μg (or 0.18 μg in some transfections, see Example 3.C.2.) of the indicated plasmid according to standard CaPO4 transfection procedures [see Wigler et al. (1979) Proc. Natl. Acad. Sci. USA 76:1373-1376]. In addition, 0.5-2 μg (or 0.18 μg in some transfections, see Example 3.C.2) of plasmid pCMVβgal (Clontech Laboratories, Palo Alto, Calif.), which contains the Escherichia coli β-galactosidase gene fused to the CMV promoter, were co-transfected as a reporter gene for monitoring the efficiency of transfection. The transfectants were analyzed for β-galactosidase expression by direct staining of the product of a reaction involving β-galactosidase and the X-gal substrate [Jones (1986) EMBO 5:3133-3142]. Transfectants can also be analyzed for β-galactosidase expression by measurement of β-galactosidase activity [Miller (1972) in Experiments in Molecular Genetics, pp.352-355, Cold Spring Harbor Press].
HEK 293 cells that were transiently transfected with 5 μg of MMTV-hmGluR5A were co-transfected with 5 μg of pRShGR (ATCC accession no. 67200) which contains DNA encoding a glucocorticoid receptor operatively linked to the Rous Sarcoma virus (RSV) LTR promoter. Co-expression of glucocorticoid receptors in these cells should insure that induction of expression of the MMTV promoter-mGluR5a DNA occurs upon addition of glucocorticoid (e.g., dexamethasone) to the cells.
Untransfected HEK 293 cells (or HEK 293 cells transiently transfected with pCMV-T7-3) and HEK 293 cells that had been transfected with mGluR5a-encoding DNA were plated in the wells of a 96-well microtiter dish (Nunc Catalog No. 1-6708, distributed by Alameda Industries, Escondido, Calif.) that had been precoated with poly-L-lysine at a density of 2×10^5 cells/well and loaded with fluo-3 by incubation for 2 hours at 20° C. in a medium containing 20 μM fluo-3, 0.2% Pluronic F-127 in HBS (125 mM NaCl, 5 mM KCl, 1.8 mM CaCl2, 0.62 MM MgCl2, 20 mM glucose, 20 mM HEPES, pH 7.4). The cells were then washed with assay buffer (i.e. HBS). The microtiter dish was then placed into a fluorescence plate reader (e.g., Fluoroskan II, Lab Products International, Ltd., Raleigh, N.C.), and the basal fluorescence of each well was measured and recorded before addition of metabotropic receptor-modulating compounds such as quisqualate, glutamate, trans-ACPD (1-amino-cyclopentane-1,3-dicarboxylic acid), 1S,3R-ACPD, AP3 (2-amino-3-phosphonopropionate) AP5 (2-amino-5-phosphonopentanoate), and CNQX (6-cyano-7-nitroquinoxaline-2,3-dione) to the wells. The fluorescence of the wells was monitored repeatedly (75 readings at 0.63-sec intervals) following addition of agonist.

[2] = molecular target: T1, human mGluR5a receptor; assay: Phosphatidylinositol hydrolysis (IP1) assay in HEK 293 cells transiently transfected with mGluR5a3; format: cell-based; parameters: expressed in transfected cells; host or cells: HEK 293 cells, transient CaPO4 transfection; conditions: 1 mM AP3
Experimental: HEK 293 cells that had been transiently transfected with mGluR5a3 were plated in 24-well microtiter plates at a density of 8×10^5 cells/well. After the cells were allowed to settle and adhere to the bottom of the plate for a few hours, 2 μCi of [^3H]-myo-inositol (Amersham catalog # PT6-271, Arlington Heights, Ill.; specific activity=17.7 Ci/mmol) was added to each well and incubated overnight at 37° C. The next day, the cells were examined under a Nikon Diaphot inverted microscope to assess the health of the cells morphologically as well as to determine if the wells contained a confluent layer of cells. Media was then aspirated and the cells were washed twice with 0.5 ml Krebs bicarbonate buffer [117.9 mM NaCl, 4.72 mM KCl, 2.54 mM CaCl2, 1.18 mM MgSO4, 1.19 mM KH2PO4, 25 mM NaHCO3, 11.1 mM dextrose (equilibrated with 95% O2, 5% CO2, pH 7.4)]. The cells were incubated for 45 min. at room temperature. The buffer was then aspirated from each well and the cells were washed and incubated in 0.5 ml/well for 45 min at room temperature. The buffer was aspirated from each well, and the cells were then incubated for 20 min at 37° C. with 450 μl Krebs-bicarbonate buffer containing 10 mM LiCl instead of 10 mM NaCl (to block hydrolysis of IP1 to inositol and inorganic phosphate) and 10 mM unlabeled myo-inositol.
To begin treatment of the cells with metabotropic receptor-modulating compounds, 50 μl of Krebs-bicarbonate buffer (control) or 10× the final concentration of the compound was added to each well and the incubation was continued for 40 min. Incubation was terminated by addition of 1 ml ice-cold methanol to each well.
In order to isolate IP1 from the cells, the cells were removed from the plates by scraping with plastic pipette tips, and the cell suspension was transferred to 12×75 mm glass tubes. The tubes were thoroughly vortexed, and a 150-μl aliquot, i.e., one-tenth of the total volume, of each reaction mixture was transferred to another tube for protein determination. The water-soluble inositol phosphates were separated from the radiolabelled membrane phospholipids by extraction in 1 ml chloroform. The tubes were incubated at room temperature for 30 min before centrifugation at 500×g for 5 min at 4° C. The aqueous (top) layer containing the [^3H]-inositol phosphates was transferred to 10-ml syringes connected to Accell QMA SEP-PAK columns (Millipore; Calif.), which were attached to an Amersham Superseparator apparatus that was modified to allow collection into 20-ml scintillation vials. Water (10 ml) was added to the cartridge to remove [^3H]-inositol precursor, followed by 4 ml 0.02 M triethylammonium hydrogen carbonated buffer (TEAB, Fluka; N.Y.). To separately remove [^3H]-IP1, [^3H]-IP2 and [^3H]-IP3 from the cartridge, 4 ml of 0.1 M TEAB, 4 ml of 0.3 M TEAB and 4 ml of 0.4 M TEAB were sequentially added to the cartridge and the separate eluate fractions were collected in large scintillation vials. Ecolume cocktail (15 ml; ICN; California) was added to each vial for subsequent scintillation counting to determine the amount of each IP in the separate fractions. Protein concentration was determined using the Bio-Rad Protein Micro-Assay (Bio-Rad, Richmond, Calif.).

[3] = system: olfactory cyclic nucleotide-gated channel; assay: Single-cell video imaging of [Ca++]i in HEK293 cells transfected with pCMV-OCNA; format: cell-based; conditions: 1 mM IBMX
Experimental: The transfectants were also analyzed by single-cell video imaging of internal calcium levels ([Ca^++]i). This method allows analysis of cyclic nucleotide-gated channel activity by measurement of intracellular calcium levels, which change with the amount of calcium influx through the channel, as regulated by cyclic nucleotide activation of the channel. The imaging assay was conducted essentially as described in Example 3.C.1.b., with some modifications. After dye loading, the cells were examined using a Zeiss Axiovert microscope and 100 W mercury lamp, a Dage intensified CCD camera, and Image-1 hardware and software for image processing. The software controlled the alternate excitation of the cells at 350 and 385 nm (typically every 5 seconds) through a 20×1.3 N.A. oil immersion objective. Light emitted at greater than 510 nm was collected by the CCD camera, digitized, and 350 and 385 nm excitation images were background-subtracted before calculating the 350/385 nm intensity ratio.
For quantitative analysis, the average 350/385 ratio value in a 12 by 12 pixel region over each cell was calculated by the software for each ratio image in an experiment and imported into a spreadsheet for further analysis and graphing. […]
In these experiments, the HEK293 cell transfectants were exposed to agents which increase intracellular cAMP levels and monitored for subsequent changes in [Ca^++]i. […]

[4] = molecular target: olfactory cyclic nucleotide-gated channel (Rattus norvegicus, UniProt Q00195); conditions: 1 mM cAMP; membrane potential ramped from −100 to +100 mV in 2 seconds; one patch
olfactory cyclic nucleotide-gated channel (Rattus norvegicus, UniProt Q00195), sequence (Q00195 whole entry): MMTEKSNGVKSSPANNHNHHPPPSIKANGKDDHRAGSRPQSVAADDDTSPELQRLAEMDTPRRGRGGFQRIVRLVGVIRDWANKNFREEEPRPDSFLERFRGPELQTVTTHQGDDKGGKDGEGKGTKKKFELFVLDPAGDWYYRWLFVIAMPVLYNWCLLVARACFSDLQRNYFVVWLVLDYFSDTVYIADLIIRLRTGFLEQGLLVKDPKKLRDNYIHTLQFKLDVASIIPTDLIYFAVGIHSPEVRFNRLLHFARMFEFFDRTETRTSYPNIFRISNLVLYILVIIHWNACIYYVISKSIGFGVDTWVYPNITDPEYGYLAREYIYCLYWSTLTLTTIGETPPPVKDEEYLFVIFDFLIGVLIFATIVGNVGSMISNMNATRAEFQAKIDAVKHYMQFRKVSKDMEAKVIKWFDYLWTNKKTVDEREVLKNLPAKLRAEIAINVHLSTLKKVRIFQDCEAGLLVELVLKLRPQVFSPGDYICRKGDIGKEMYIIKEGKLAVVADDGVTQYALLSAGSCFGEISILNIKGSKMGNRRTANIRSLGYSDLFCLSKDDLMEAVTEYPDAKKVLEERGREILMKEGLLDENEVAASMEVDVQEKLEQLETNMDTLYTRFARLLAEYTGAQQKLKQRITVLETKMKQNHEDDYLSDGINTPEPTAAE
Experimental: HEK293 cells were grown in monolayers (approximately 2×10^6 cells per 10 cm poly-D-lysine-coated plate) in Dulbecco's modified Eagle's medium (DMEM; Gibco) containing 5% defined supplemented calf serum (Hyclone) including 100 U/ml penicillin and 100 μg/ml streptomycin sulfate. […] Transfection efficiencies, as determined by measuring β-galactosidase activity, were 50-70%.
HEK cells transfected with olfactory cyclic nucleotide-gated channel DNA were incubated 24-48 hours before testing for function. The activity of the channels was first assessed electrophysiologically using inside-out membrane patches pulled from the transfected cells so that the concentration of cAMP reaching the cytoplasmic face could be controlled (see, e.g., Single-Channel Recording, Sakmann and Neher, eds., Plenum Press, N.Y. (1983)). […]

[5] = system: endogenous G-protein-coupled muscarinic acetylcholine receptors; assay: Fluorescence imaging assay (fura-2), response to muscarinic agonist; format: cell-based, human; conditions: 1 mM; transfectants and untransfected HEK 293 cells
Experimental: HEK 293 cells that had been transiently transfected with mGluR5a3 and untransfected HEK 293 cells (control) were analyzed by digital video imaging in order to visualize metabotropic receptor-mediated changes in intracellular Ca^++ concentration. Transfectants (4×10^5 cells per 35-mm culture dish with glass-insert bottom) were loaded with fura-2 by exposing the cells to 1 μM fura-2 (acetoxymethyl ester) for 25 min at room temperature in the dark. The cells were then washed three times with DMEM and four times with Ringer's (160 mM NaCl, 5 mM KCl, 2 mM CaCl2, 1 mM MgCl2, 11 mM glucose, 5 mM HEPES, pH 7.3) solution.
The transfectants and untransfected cells were then placed on the stage of an Axiovert 100 TV inverted microscope (Zeiss, Oberkochren, Germany) equipped with a 150 W xenon lamp as the UV light source. […]
The uncalibrated fura-2 ratios were used to generate pseudocolor images with purple corresponding to resting intracellular Ca^++ concentration (˜100 nM) and red to high intracellular Ca^++ concentration (˜1 μM). For quantitative analysis, the average ratio value in a 12-by-12 pixel region over each cell was calculated by the software for each ratio image in an experiment and imported into a spreadsheet for further analysis and graphing.

[6] = molecular target: T1, human mGluR5a receptor; assay: [3H]-glutamate binding to membranes of HEK 293 cells transfected with mGluR5a3; parameters: expressed in transfected cells; host or cells: HEK 293 cells, transient CaPO4 transfection; conditions: 200 μg of membranes, 100 nM [3H]-glutamate
Experimental: In order to prepare membranes from HEK 293 cells transfected. with mGluR5a-encoding DNA or pUC19 (negative control), cells were scraped from the tissue culture plates, and the plates rinsed with 5 ml of PBS (phosphate-buffered saline: 137 mM NaCl, 2.7 mM KCl, 10 mM Na2HPO4, 1.7 mM KH2PO4). The cells were centrifuged at low speed in a table-top centrifuge, and the cell pellet was rinsed with PBS. The cell pellet was resuspended in 20 volumes of 50 mM Tris-HCl containing 0.5 mM PMSF, pH 7.6. The cells were homogenized on ice in a Dounce (teflon/glass) homogenizer using 10-20 strokes. The homogenate was centrifuged at 120,000×g for 30 min. at 4° C. The final membrane pellet was resuspended in 50 mM Tris-HCl containing 0.5 mM PMSF, pH 7.6. […] The protein concentration was determined using the method of Bradford [(1976) Anal. Biochem. 72:248).
Specific binding of [^3H]-glutamate to membranes prepared from HEK 293 cells transfected with mGluR5a-encoding DNA or pUC19 was determined essentially as described for measuring binding to rat brain membranes with minor modifications. […] NMDA, AMPA and kainate were excluded from the assay mixture when HEK 293 cell membranes were being analyzed for [^3H]-glutamate binding.
Specific binding of [^3H]-glutamate to membranes prepared from HEK 293 cells transfected with mGluR5a3 or pUC19 was measured using 200 μg of membranes and 100 nM [^3H]-glutamate.

T1 sequence (P41594 21-1180 isoform P41594-2 limits assumed): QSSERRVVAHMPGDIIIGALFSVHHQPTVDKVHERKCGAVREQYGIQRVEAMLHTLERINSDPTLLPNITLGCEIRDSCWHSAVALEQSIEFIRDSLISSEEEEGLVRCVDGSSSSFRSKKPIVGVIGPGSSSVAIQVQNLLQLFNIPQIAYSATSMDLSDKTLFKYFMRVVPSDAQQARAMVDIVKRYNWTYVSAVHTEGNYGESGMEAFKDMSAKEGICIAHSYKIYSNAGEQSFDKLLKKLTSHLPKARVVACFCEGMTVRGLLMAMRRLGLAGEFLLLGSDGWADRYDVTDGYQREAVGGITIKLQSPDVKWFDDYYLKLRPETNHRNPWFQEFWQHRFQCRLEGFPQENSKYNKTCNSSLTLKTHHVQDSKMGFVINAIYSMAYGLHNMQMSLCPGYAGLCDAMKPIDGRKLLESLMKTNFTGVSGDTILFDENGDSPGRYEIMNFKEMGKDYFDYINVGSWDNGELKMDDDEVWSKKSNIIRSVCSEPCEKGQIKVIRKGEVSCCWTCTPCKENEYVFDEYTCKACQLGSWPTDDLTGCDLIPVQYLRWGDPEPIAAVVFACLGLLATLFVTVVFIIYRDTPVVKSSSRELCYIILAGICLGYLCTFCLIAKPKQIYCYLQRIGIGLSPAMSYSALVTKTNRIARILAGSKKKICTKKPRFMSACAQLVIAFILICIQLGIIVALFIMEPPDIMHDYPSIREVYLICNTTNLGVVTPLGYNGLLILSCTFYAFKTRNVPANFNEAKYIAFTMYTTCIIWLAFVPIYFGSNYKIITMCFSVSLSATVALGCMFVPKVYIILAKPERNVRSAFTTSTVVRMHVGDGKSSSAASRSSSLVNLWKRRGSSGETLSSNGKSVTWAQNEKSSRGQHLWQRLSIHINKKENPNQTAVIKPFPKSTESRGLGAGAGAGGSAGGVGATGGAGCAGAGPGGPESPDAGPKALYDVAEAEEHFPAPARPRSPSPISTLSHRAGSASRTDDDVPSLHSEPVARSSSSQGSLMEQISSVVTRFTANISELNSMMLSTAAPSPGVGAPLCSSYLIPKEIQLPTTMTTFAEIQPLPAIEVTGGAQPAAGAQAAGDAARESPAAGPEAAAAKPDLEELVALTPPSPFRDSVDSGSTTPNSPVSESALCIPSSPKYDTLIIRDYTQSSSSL

NC(CP(=O)(O)O)C(=O)O (centres unmarked) [AP3, 2-amino-3-phosphonopropionate]
inhibition of glutamate-, quisqualate- or trans-ACPD-stimulated fluorescence increases [1]: Neither of these compounds (AP3, AP5 or CNQX) inhibited | effect on quisqualate-induced increase in IP1 levels [2]: not affected

NC(CCCP(=O)(O)O)C(=O)O (centres unmarked) [AP5, 2-amino-5-phosphonopentanoate]
inhibition of glutamate-, quisqualate- or trans-ACPD-stimulated fluorescence increases [1]: Neither of these compounds (AP3, AP5 or CNQX) inhibited

N#Cc1cc2c(cc1[N+](=O)[O-])=NC(=O)C(=O)N=2 [CNQX, 6-cyano-7-nitroquinoxaline-2,3-dione]
inhibition of glutamate-, quisqualate- or trans-ACPD-stimulated fluorescence increases [1]: Neither of these compounds (AP3, AP5 or CNQX) inhibited

CC(C)Cn1c(=O)n(C)c(=O)c2[nH]cnc21 [IBMX, 3-isobutyl-1-methylxanthine]
change in [Ca++]i [3]: more significant increase

Nc1ncnc2c1ncn2[C@@H]1O[C@@H]2COP(=O)(O)O[C@H]2[C@H]1O [cAMP, cyclic AMP]
current in inside-out patch [4]: a current was elicited

C[N+](C)(C)CCOC(N)=O.[Cl-] [carbamylcholine]
intracellular Ca++ concentration change [5]: detectable increase in the intracellular Ca^++ concentration of the majority of the cells

[^3H]-glutamate
specific binding versus membranes of pUC19-transfected cells [6]: significantly higher

— patent publication US6413764B1, “Human metabotropic glutamate receptors, nucleic acids encoding same and uses thereof” (Merck & Co., Inc., priority 1993, dated 2002)
